# Read-outs that look alike come from different tables or passages of the source.
# Experiments:
# Format in all cases: cell-based
# [1] = test system: Streptococcus agalactia B group; assay: microbe, parasite or virus in culture; settings: 37° C., 24 hours; for MIC: Streptococcus, read-out: MIC values of in vitro antibacterial test results
# [2] = test system: Bacillus subtilis 168; assay: microbe, parasite or virus in culture; settings: 37° C., 24 hours; for MIC: Bacillus subtilis, 168, read-out: MIC values of in vitro antibacterial test results
# [3] = test system: Streptococcus pneumoniae M2; assay: microbe, parasite or virus in culture; settings: 37° C., 24 hours; for MIC: Streptococcus pneumoniae, M2, read-out: MIC values of in vitro antibacterial test results
# [4] = test system: Staphylococcus aureus 43300(MRSA); assay: microbe, parasite or virus in culture; settings: for MIC: Staphylococcus aureus, MRSA, 24 h, read-out: MIC values of in vitro antibacterial test results
# [5] = test system: Bacillus cereus 2; assay: microbe, parasite or virus in culture; settings: 37° C., 24 hours; for MIC: Bacillus cereus, 2, read-out: MIC values of in vitro antibacterial test results
# [6] = test system: Bacillus anthracis Bacillus 1; assay: microbe, parasite or virus in culture; settings: for MIC: Bacillus anthracis, 24 h, read-out: MIC values of in vitro antibacterial test results
# [7] = test system: Staphylococcus aureus 29231; assay: microbe, parasite or virus in culture; settings: 37° C., 24 hours; for MIC: Staphylococcus aureus, 29231, read-out: MIC values of in vitro antibacterial test results
# [8] = test system: Staphylococcus aureus 703(MRSA); assay: microbe, parasite or virus in culture; settings: for MIC: Staphylococcus aureus, MRSA, 24 h, read-out: MIC values of in vitro antibacterial test results
# [9] = test system: F2518(VRE), Staphylococcus aureus resistant strain 43300(MRSA), 703 (MRSA), pneumococcal resistance bacteria 6303(PRSP); assay: microbe, parasite or virus in culture; settings: read-out: MIC values (μM)
# [10] = test system: Enterococcus faecalis 29212; assay: microbe, parasite or virus in culture; settings: 37° C., 24 hours; for MIC: Enterococcus faecalis, 29212, read-out: MIC values of in vitro antibacterial test results
# [11] = test system: Clostridium perfringens; assay: microbe, parasite or virus in culture; settings: for MIC: Clostridium perfringens, 24 h, read-out: MIC values of in vitro antibacterial test results
# [12] = test system: Peel fungus; assay: organism not typed; settings: 37° C., 24 hours; for MIC: read-out: MIC values of in vitro antibacterial test results
# [13] = test system: Streptococcus pneumoniae 10351; assay: microbe, parasite or virus in culture; settings: 37° C., 24 hours; for MIC: Streptococcus pneumoniae, 10351, read-out: MIC values of in vitro antibacterial test results
# [14] = test system: Streptococcus pneumoniae 6303 (PRSP); assay: microbe, parasite or virus in culture; settings: for MIC: Streptococcus pneumoniae, PRSP, 24 h, read-out: MIC values of in vitro antibacterial test results
# [15] = test system: Enterococcus faecalis F2518(VRE); assay: microbe, parasite or virus in culture; settings: for MIC: Enterococcus faecalis, VRE, 24 h, read-out: MIC values of in vitro antibacterial test results
# [16] = test system: Diphtheria bacilli; assay: organism not typed; settings: 37° C., 24 hours; for MIC: read-out: MIC values of in vitro antibacterial test results
# [17] = test system: Oral Candida; assay: microbe, parasite or virus in culture; settings: for MIC: Candida
# [18] = 37° C., 24 hours, read-out: MIC values of in vitro antibacterial test results
Structure (SMILES),MIC [1] [µg/mL],MIC [2] [µg/mL],MIC [3] [µg/mL],MIC [4] [µg/mL],MIC [5] [µg/mL],MIC [6] [µg/mL],MIC [7] [µg/mL],MIC [8] [µg/mL],MIC [9] [µg/mL],MIC [10] [µg/mL],MIC [11] [µg/mL],MIC [12] [µg/mL],MIC [13] [µg/mL],MIC [14] [µg/mL],MIC [15] [µg/mL],MIC [16] [µg/mL],MIC ([17]; read-out: MIC values (μM)) [µg/mL],"MIC [17, 18] [µg/mL]",also measured
"Cc1nn2c([O-])cc(-c3ccc(C(F)(F)F)nc3)nc2c1-c1ccc(F)cc1F.[K+] [Compound 26, Potassium 3-(2,4-difluorophenyl)-2-methyl-5-(6-(trifluoromethyl)pyridin-3-yl)pyrazolo[1,5-α]pyrimidin-7-olate]",< 150,< 100,< 150,< 100,< 100,> 150,< 100,< 100,< 100,< 100,> 150,< 150,< 150,< 150,< 150,> 150,< 100,< 100,–
Cc1nn2c([O-])cc(-c3ccc([O-])cc3)nc2c1-c1ccc(F)cc1F.[Na+].[Na+] [Compound 6],< 150,< 100,< 150,< 100,< 100,> 150,< 100,< 100,< 100,< 100,> 150,< 150,< 100,< 150,< 150,> 150,< 100,< 100,–
Cc1nn2c([O-])cc(-c3ccc(S(=O)[O-])cc3)nc2c1-c1ccc(F)cc1F.[Na+].[Na+] [Compound 8],> 150,> 150,< 150,< 150,< 150,> 150,> 150,< 150,–,< 150,> 150,< 150,> 150,> 150,< 150,> 150,–,< 150,–
"Cc1nn2c([O-])cc(-c3ccc([S](=O)(=O)[Na])nc3)nc2c1-c1ccc(F)cc1F.[Na+] [Compound 28, Disodium 5-(3-(2,4-difluorophenyl)-2-methyl-7-hydroxypyrazolo[1,5-α]pyrimidin-5-yl)pyridine-2-sulfinate]",–,–,–,–,–,–,–,–,–,–,–,–,–,–,–,–,–,–,"MIC values of in vitro antibacterial test results [1]: − (key: − represents the MIC value (μM) > 150 μg/mL; + represents the MIC value (μM) < 150 μg/mL; ++ represents the MIC value (μM) < 100 μg/mL; +++ represents the MIC value (μM) < 50 μg/mL); MIC values of in vitro antibacterial test results [2]: − (key: − represents the MIC value (μM) > 150 μg/mL; + represents the MIC value (μM) < 150 μg/mL; ++ represents the MIC value (μM) < 100 μg/mL; +++ represents the MIC value (μM) < 50 μg/mL); MIC values of in vitro antibacterial test results [3]: ++ (key: − represents the MIC value (μM) > 150 μg/mL; + represents the MIC value (μM) < 150 μg/mL; ++ represents the MIC value (μM) < 100 μg/mL; +++ represents the MIC value (μM) < 50 μg/mL); MIC values of in vitro antibacterial test results ([4]; 37° C., 24 hours): + (key: − represents the MIC value (μM) > 150 μg/mL; + represents the MIC value (μM) < 150 μg/mL; ++ represents the MIC value (μM) < 100 μg/mL; +++ represents the MIC value (μM) < 50 μg/mL); MIC values of in vitro antibacterial test results [5]: ++ (key: − represents the MIC value (μM) > 150 μg/mL; + represents the MIC value (μM) < 150 μg/mL; ++ represents the MIC value (μM) < 100 μg/mL; +++ represents the MIC value (μM) < 50 μg/mL); MIC values of in vitro antibacterial test results ([6]; 37° C., 24 hours): − (key: − represents the MIC value (μM) > 150 μg/mL; + represents the MIC value (μM) < 150 μg/mL; ++ represents the MIC value (μM) < 100 μg/mL; +++ represents the MIC value (μM) < 50 μg/mL); MIC values of in vitro antibacterial test results [7]: − (key: − represents the MIC value (μM) > 150 μg/mL; + represents the MIC value (μM) < 150 μg/mL; ++ represents the MIC value (μM) < 100 μg/mL; +++ represents the MIC value (μM) < 50 μg/mL); MIC values of in vitro antibacterial test results ([8]; 37° C., 24 hours): + (key: − represents the MIC value (μM) > 150 μg/mL; + represents the MIC value (μM) < 150 μg/mL; ++ represents the MIC value (μM) < 100 μg/mL; +++ represents the MIC value (μM) < 50 μg/mL); MIC values of in vitro antibacterial test results [10]: + (key: − represents the MIC value (μM) > 150 μg/mL; + represents the MIC value (μM) < 150 μg/mL; ++ represents the MIC value (μM) < 100 μg/mL; +++ represents the MIC value (μM) < 50 μg/mL); MIC values of in vitro antibacterial test results ([11]; 37° C., 24 hours): − (key: − represents the MIC value (μM) > 150 μg/mL; + represents the MIC value (μM) < 150 μg/mL; ++ represents the MIC value (μM) < 100 μg/mL; +++ represents the MIC value (μM) < 50 μg/mL); MIC values of in vitro antibacterial test results [12]: + (key: − represents the MIC value (μM) > 150 μg/mL; + represents the MIC value (μM) < 150 μg/mL; ++ represents the MIC value (μM) < 100 μg/mL; +++ represents the MIC value (μM) < 50 μg/mL); MIC values of in vitro antibacterial test results [13]: − (key: − represents the MIC value (μM) > 150 μg/mL; + represents the MIC value (μM) < 150 μg/mL; ++ represents the MIC value (μM) < 100 μg/mL; +++ represents the MIC value (μM) < 50 μg/mL); MIC values of in vitro antibacterial test results ([14]; 37° C., 24 hours): − (key: − represents the MIC value (μM) > 150 μg/mL; + represents the MIC value (μM) < 150 μg/mL; ++ represents the MIC value (μM) < 100 μg/mL; +++ represents the MIC value (μM) < 50 μg/mL); MIC values of in vitro antibacterial test results ([15]; 37° C., 24 hours): + (key: − represents the MIC value (μM) > 150 μg/mL; + represents the MIC value (μM) < 150 μg/mL; ++ represents the MIC value (μM) < 100 μg/mL; +++ represents the MIC value (μM) < 50 μg/mL); MIC values of in vitro antibacterial test results [16]: − (key: − represents the MIC value (μM) > 150 μg/mL; + represents the MIC value (μM) < 150 μg/mL; ++ represents the MIC value (μM) < 100 μg/mL; +++ represents the MIC value (μM) < 50 μg/mL); MIC values of in vitro antibacterial test results ([17]; 37° C., 24 hours): ++ (key: − represents the MIC value (μM) > 150 μg/mL; + represents the MIC value (μM) < 150 μg/mL; ++ represents the MIC value (μM) < 100 μg/mL; +++ represents the MIC value (μM) < 50 μg/mL)"
